Assay results reported in publication PMC12722636, “Structural Pharmacology of Bufotenine Derivatives in Activating the 5-HT1A Receptor for Therapeutic Potential in Depression and Anxiety” (Research, 2025).
Like-named read-outs stand apart in the source and are kept apart here.

Experiments:
5-HT2A receptor = target: T1, 5-HT2A receptor (Homo sapiens, UniProt P28223); assay: cell-based; assay type: cell-based
T1 construct: expressed in transfected cells; host or cells: HEK 293T
Description: We evaluated the impact of bufotenine derivatives on 6 serotonin receptor subtypes associated with depression (5-HT1A, 5-HT1B, 5-HT1D, 5-HT2A, 5-HT2C, and 5-HT7) using the GloSensor cAMP assay to measure Gi and Gs activation and the IP-One assay to assess Gq activation, thereby detecting signaling activity at each receptor. […] We conducted a thorough pharmacological analysis of bufotenine derivatives to evaluate their hallucinogenic potential via 5-HT2AR activation, comparing their receptor binding profiles and functional activities at 5-HT1AR and 5-HT2AR subtypes.
The downstream Gαq signaling of 5-HT2A was evaluated using the IP-One HTRF assay (Cisbio). HEK 293T cells were cultured in DMEM with 10% FBS and 1% penicillin–streptomycin at 37 °C, 5% CO2. After 24 h of transfection, cells were resuspended in stimulation buffer (8 × 10^5 cells/ml) and plated at 7 μl/well into 384-well plates. Ligands diluted in buffer (7 μl) were added and incubated for 1 h at 37 °C. IP-One-d2 and anti-IP-One cryptate (3 μl each) were then added, followed by 30-min incubation at room temperature. HTRF signals were measured using an EnVision reader (PerkinElmer).
(§3) An evaluation of the concentration–response curves was carried out using a logistic equation with 3 parameters. Calculations of pEC50 values were performed with the use of the sigmoid 3-parameter equation. In order to assess the significance, a 1-way or 2-way analysis of variance was conducted, followed by Bonferroni’s or Dunnett’s post hoc test. Differences were considered significant when P < 0.05 and are shown as *P < 0.05, **P < 0.01, or ***P < 0.001.

CUMS model mice [1] = assay: Open-field test (OFT) in CUMS depression model; details: 15 mg/kg i.p. for 1 week; for OFT time spent in the center / OFT total distance traveled: CUMS mice, regardless of 5-HT1AR knockdown, Fig. 6D
CUMS model mice [2] = assay: Sucrose preference test (SPT) in CUMS depression model; details: 15 mg/kg i.p. for 1 week, versus CUMS model, Fig. 6C
5-HT1A receptor = target: T2, 5-HT1A receptor (Homo sapiens, UniProt P08908); assay: GloSensor cAMP assay, 5-HT1A Gi signaling in HEK 293T cells; assay type: cell-based
T2 sequence (P08908 1-422): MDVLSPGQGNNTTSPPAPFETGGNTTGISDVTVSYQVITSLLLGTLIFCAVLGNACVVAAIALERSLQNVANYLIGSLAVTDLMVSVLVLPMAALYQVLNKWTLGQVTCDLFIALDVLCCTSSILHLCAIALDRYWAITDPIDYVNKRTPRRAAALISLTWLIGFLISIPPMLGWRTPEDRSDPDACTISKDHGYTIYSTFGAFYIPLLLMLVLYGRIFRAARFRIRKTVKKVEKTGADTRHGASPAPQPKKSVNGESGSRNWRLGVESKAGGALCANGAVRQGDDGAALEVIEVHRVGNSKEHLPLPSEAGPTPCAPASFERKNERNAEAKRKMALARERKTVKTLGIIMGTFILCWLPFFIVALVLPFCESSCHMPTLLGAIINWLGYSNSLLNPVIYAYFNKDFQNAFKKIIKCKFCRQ
Method: (§4) The downstream Gαi signaling of 5-HT1A was assessed using the GloSensor cAMP assay (Promega). HEK 293T cells were cultured in DMEM with 10% FBS and 1% penicillin–streptomycin at 37 °C and 5% CO2. Cells were transfected with 5-HT1A constructs and the GloSensor-22F biosensor at a 3:2 ratio. After 24 h, cells were resuspended in CO2-independent medium with 2% GloSensor reagent and plated at 3.5 × 10^5 cells/ml (20 μl/well) into 384-well plates. After 1-h incubation, forskolin (1 μM) and test ligands were added, and luminescence was immediately recorded using an EnVision plate reader (PerkinElmer).
as §3

mice [3] = assay: Head-twitch response (HTR), side effect detection; assay type: in vivo, C57BL/6 male mice; details: 25 mg/kg i.p., recorded 10 min, in contrast to 5-MeO-DMT, Fig. S10
Method: (§1) Then, HTR and HLA were immediately tested. Mice were placed into the observation arena (25 × 25 × 40 cm) under low-light conditions. The number of head-twitch events and total distance were respectively recorded for 10 and 30 min. For the HTR test, the number of head twitches was examined by 2 observers blinded to the treatments via video recordings. For the HLA test, the total distance traveled was measured by using tracking software to process video recordings.

mice [4] = assay: Horizontal locomotor activity (HLA), side effect detection; assay type: in vivo, C57BL/6 male mice; details: 25 mg/kg i.p., recorded 30 min, in contrast to 5-MeO-DMT, Fig. S10
Method: as §1

[5] = system: PCPA-induced mouse model of depression and anxiety; assay: Tail suspension test (TST) in PCPA model; assay type: in vivo, C57BL/6 male mice; details: for Immobility time in TST: PCPA model, 5-OH-DMT 15 mg/kg i.p. or WAY100635 1 mg/kg i.p. for 3 d, versus control or model group, Fig. 6F
Method: (§2) Mice in the control group were fed with saline solution containing 0.1% DMSO (vehicle) for 3 d. Mice that were injected subcutaneously with 150 mg/kg PCPA twice daily for 3 d developed symptoms of depression. […] For WAY100635 treatment, mice were injected intraperitoneally with 1 mg/kg WAY100635 for 3 d. […] Then, mice were tested for all behaviors.

[6] = system: PCPA-induced mouse model of depression and anxiety; assay: Forced swimming test (FST) in PCPA model; assay type: in vivo, C57BL/6 male mice; details: for Immobility time in FST: PCPA model, 5-OH-DMT 15 mg/kg i.p. or WAY100635 1 mg/kg i.p. for 3 d, versus control or model group, Fig. 6G
Method: as §2

[7] = system: PCPA-induced mouse model of depression and anxiety; assay: Sucrose preference test (SPT) in PCPA model; assay type: in vivo, C57BL/6 male mice; details: for Sucrose preference: PCPA model, 5-OH-DMT 15 mg/kg i.p. or WAY100635 1 mg/kg i.p. for 3 d, versus control or model group, Fig. 6H
Method: as §2

[8] = system: PCPA-induced mouse model of depression and anxiety; assay: Open-field test (OFT) in PCPA model; assay type: in vivo, C57BL/6 male mice; details: for OFT time spent in center / OFT total distance traveled: PCPA model, 5-OH-DMT 15 mg/kg i.p. or WAY100635 1 mg/kg i.p. for 3 d, versus control or PCPA mice, Fig. 6I
Method: as §2

5-HT1A A365^6.55F mutant = assay: GloSensor cAMP assay on 5-HT1A mutant A365F; details: mutant versus WT 5-HT1A, fold less potent, Fig. S7E
Method: In order to examine the underlying mechanism of ligand selectivity, we introduced a mutation at position A365^6.55, replacing it with phenylalanine.
as §4
WT or mutant were transfected into HEK293T cells and Glosenser cAMP assay were measured to reflect the activity of 5-HT1AR. The response data was normalized by WT receptor within each individual experiment, with the basal activity for WT as 0, while the fitted Emax of WT as 100. Three independent experiments were conducted (n=3).

[9] = PCPA + 5-OH-DMT 15 mg/kg + WAY100635 1 mg/kg i.p. versus PCPA + 5-OH-DMT

T1 sequence (P28223 whole entry): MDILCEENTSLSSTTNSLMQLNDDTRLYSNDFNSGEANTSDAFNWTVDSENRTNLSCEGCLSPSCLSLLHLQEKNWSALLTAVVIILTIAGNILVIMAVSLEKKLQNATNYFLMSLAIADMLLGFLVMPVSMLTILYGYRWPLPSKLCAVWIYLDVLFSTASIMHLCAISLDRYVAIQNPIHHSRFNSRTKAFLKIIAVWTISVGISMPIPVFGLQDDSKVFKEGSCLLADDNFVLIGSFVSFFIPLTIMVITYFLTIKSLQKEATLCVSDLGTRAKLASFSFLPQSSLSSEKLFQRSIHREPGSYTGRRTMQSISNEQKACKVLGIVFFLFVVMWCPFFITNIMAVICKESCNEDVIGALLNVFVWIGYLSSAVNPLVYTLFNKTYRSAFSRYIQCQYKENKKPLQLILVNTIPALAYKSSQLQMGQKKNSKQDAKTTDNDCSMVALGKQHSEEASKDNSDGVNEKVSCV

Row | SMILES | OFT time spent in the center (CUMS model mice [1]) | OFT total distance traveled (CUMS model mice [1]) | Sucrose preference (CUMS model mice [2]) | Immobility time in TST [5] | Immobility time in FST [6] | Sucrose preference [7] | OFT time spent in center [8] | OFT total distance traveled [8] | other results
1 | COc1ccc2[nH]cc(CCN(C)C)c2c1 [Compound 5-MeO-DMT, 5-methoxy-N,N-dimethyltryptamine] | increased | increased | significantly counteract the reduction in sucrose preference induced by CUMS | – | – | – | – | – | Potency at 5-HT2AR compared to 5-OH-DMT (5-HT2A receptor; ratio of EC50 values, times more potent): 100 times; OFT total distance after 5-HT1AR was knocked down (CUMS model mice [1]; CUMS, sh-5-HT1AR versus NC mice): reduced total distance
2 | CN(C)CCc1c[nH]c2ccc(O)cc12 [Compound 5-OH-DMT, 5-hydroxy-N,N-dimethyltryptamine] | increased | increased | significantly counteract the reduction in sucrose preference induced by CUMS | shorter immobility durations | shorter immobility durations | increased sucrose preference | dramatically increased | dramatically increased | EC50 (5-HT1A receptor): 0.1 µM; Drop in potency with 5-HT2A (5-HT2A receptor; 5-HT2A relative to 5-HT1A, times lower, Fig. 1A): roughly 10 times; Head-twitch response (HTR) (mice [3]): somewhat reduced; Horizontal locomotor activity (HLA), total distance (mice [4]): somewhat reduced; Immobility time in TST, with addition of WAY100635 [5, 9]: prolonged the immobility time; Immobility time in FST, with addition of WAY100635 [6, 9]: prolonged the immobility time; Sucrose preference, with addition of WAY100635 [7, 9]: this increase was reversed by WAY100635; OFT time spent in the center, with administration of WAY100635 [8, 9]: significantly recovered these changes; OFT total distance, with administration of WAY100635 [8, 9]: significantly recovered these changes; Loss in potency at A365^6.55F mutant (5-HT1A A365^6.55F mutant): around 1,000 fold
3 | C[N+](C)(C)CCc1c[nH]c2ccc([O-])cc12 [Compound 5-OH-TMT, 5-hydroxy-N,N,N-dimethyltryptamine] | – | – | – | – | – | – | – | – | EC50 (5-HT1A receptor; GloSensor cAMP, Gi activation, HEK 293T, Fig. 1A, read-out: EC50 at 5-HT1AR): 10 µM; EC50 (5-HT2A receptor): 10 µM
4 | COc1ccccc1N1CCN(CCN(C(=O)C2CCCCC2)c2ccccn2)CC1 [WAY100635, reference compound] | – | – | – | significantly increased immobility time | significantly increased immobility time | reduced sucrose preference | less time spent in center | less total distance traveled | –
